# Source: US10758536B2, “Method for treating shingles with N-methanocarbathymidine (N-MCT)” (priority 2015, dated 2020)
# Experiments:
# VZV [1] = assay: SCID-Hu mouse model of VZV replication, oral dose range; assay type: in vivo, varicella-zoster virus; details: all doses, N-MCT 5-100 mg/kg/day BID; p<0.0001, ANOVA and Dunnett
# Protocol: SCID-hu mice with human skin xenografts were infected intradermally with VZV and treated orally twice daily with vehicle, PFA (positive control), or N-MCT at 5, 10, 20, 25, 50, or 100 mg/kg/day. Virus spread was measured daily by in vivo bioluminescence imaging (IVIS). […] The results were analyzed for statistical significance by ANOVA and Dunnett's post hoc test of multiple comparisons (GraphPad Prism).
# VZV [2] = assay: Skin organ culture topical Assay 1: dose dependence (carbopol gel); assay type: cell-based, varicella-zoster virus
# Protocol: (§1) Place 36 mL deionized sterile water into small beaker with stir bar. Slowly waft 900 mg of carbopol (980 NF, Lot # CCONLCC013, Lubrizol Corp) into water, avoiding clumps. Add equal volume N-MCT in 20% hydroxypropyl-β-cyclodextrin (Sigma) at 2× to reach the desired concentration. Add 2 drops NaOH (18% solution) to attain a pH near 5.0. Store at 4° C. The 0.5% cidofovir gel was made in a similar manner except that cidofovir was dissolved in water. The DMSO vehicle was prepared by adding a 2% DMSO solution in water to the carbopol suspension at a 1:1 ratio. Hydroxypropyl-β-cyclodextrin (HPBCD) was prepared by mixing 5.0 g with 20 mL sterile water. Stock solution of N-MCT was prepared by dissolving 90 mg N-MCT in 9 mL 20% HPBCD and sonicating for 1 min.
# A skin organ culture model was used to evaluate N-MCT as a topical treatment for VZV. Human skin explants were inoculated with VZV by scarification and treated daily from 1-4 days post infection with N-MCT (0.05, 0.5, or 5%) or cidofovir (0.5%, positive control) in a carbopol gel.
# (§2) Human fetal skin was purchased from ABR and delivered by overnight courier on wet ice. The tissue was cleaned, disinfected in betadine and 70% ethanol, then cut into pieces approximately 1-cm^2. Each piece was inoculated with VZV-BAC-Luc strain that expresses firefly luciferase. Approximately 3 hours after inoculation, the pieces of skin were placed in NetWells above tissue culture medium and incubated overnight. The next day (Day 1) each piece of skin was soaked in D-luciferin for 45 min, and then scanned in the IVIS-50 instrument to measure Total Flux, which is a correlate of VZV pfu. The drug treatment began on Day 1 or later by spreading an aqueous gel (carbopol) containing N-MCT at concentrations of 0.05, 0.5, or 5% (see Assay 1 in Table 4 below). One group of skin was treated with cidofovir ([…] in carbopol gel) for a positive control. Each group contained 4-6 pieces of skin. The drug was applied daily until Day 5 (or other intervals), and then the skin pieces were scanned by IVIS to determine virus yield. […] The results were analyzed for statistical significance by ANOVA and Dunnett's post hoc test of multiple comparisons (GraphPad Prism).
# VZV [3] = assay: Skin organ culture topical Assay 2: delayed treatment; assay type: cell-based, varicella-zoster virus
# Protocol: as §1, §2
# This assay differs from Assay 1 in that the Vehicle was prepared with 10% HPBCD, which is the solvent for the N-MCT. Refer to Assay #2 in Table 4 above. Three groups were treated on Days 1-4 and scanned on Day 5, which is the typical assay protocol. Two groups were treated after a delay of several days, which more closely reflects a clinical scenario of zoster. All treated groups received the same preparation of 0.5% N-MCT in carbopol with 10% HPBCD. VZV yield was reduced in the Vehicle group during the treatment phase, and then rebounded. This was likely due to the effects of HPBCD, which has known antiviral properties. […] In contrast, VZV yield increased until Day 5 in the group that received no treatment until after this scan. The difference between this group and the Vehicle group was notable, since they were expected to be similar.
compound,measurement,setting,value
"O=C(O)P(=O)(O)O [PFA, phosphonoformic acid, reference compound]",VZV yield and growth rates compared to vehicle,VZV [1],significantly reduced
"Nc1ccn(C[C@@H](CO)OCP(=O)(O)O)c(=O)n1 [cidofovir, reference compound]",VZV yield compared to vehicle,"VZV [2]; N-MCT 0.05, 0.5, 5% or cidofovir in carbopol gel, daily, p<0.0004",significantly reduced
same,"VZV replication in skin explants, topical gel","VZV [2]; N-MCT 0.05-5%, cidofovir 0.5% in carbopol gel",prevented VZV replication
same,reduction of virus yield compared to the vehicle group,"VZV [2]; all concentrations, topical carbopol gel, p=0.0004",approximately 100 fold
same,"VZV yield, treatment on Days 1-4","VZV [3]; 0.5% in carbopol QD 1-4 dpi, during and after treatment",dramatically reduced
CC(O)COC[C@H]1O[C@@H]2O[C@H]3[C@H](O)[C@@H](O)[C@@H](O[C@H]4[C@H](O)[C@@H](O)[C@@H](O[C@H]5[C@H](O)[C@@H](O)[C@@H](O[C@H]6[C@H](O)[C@@H](O)[C@@H](O[C@H]7[C@H](O)[C@@H](O)[C@@H](O[C@H]8[C@H](O)[C@@H](O)[C@@H](O[C@H]1[C@H](O)[C@H]2O)O[C@@H]8COCC(C)O)O[C@@H]7COCC(C)O)O[C@@H]6COCC(C)O)O[C@@H]5COCC(C)O)O[C@@H]4COCC(C)O)O[C@@H]3COCC(C)O (stereo partly drawn) [hydroxypropyl-β-cyclodextrin],antiviral effect on VZV in skin organ culture,"VZV [3]; 10% in carbopol, no drug",moderate antiviral effect
